For assay [1], the target named is p38 MAPKα isoform (MAPK14) (Homo sapiens (Human), UniProt Q16539). Description: p38 MAPKα enzyme inhibition (Z-LYTE FRET). It is filed as biochemical. How it is done: (§1) The enzyme inhibitory activities of compounds disclosed herein are determined by FRET using synthetic peptides labelled with both donor and acceptor fluorophores (Z-LYTE, Invitrogen Ltd., Paisley, UK).
The following two assay variants can be used for determination of p38 MAPKα inhibition.
The inhibitory activities of test compounds against the p38 MAPKα isoform (MAPK14: Invitrogen), are evaluated indirectly by determining the level of activation/phosphorylation of the down-stream molecule, MAPKAP-K2. The p38 MAPKα protein (80 ng/mL, 2.5 μL) is mixed with the test compound (2.5 μL of either 4 μg/mL, 0.4 μg/mL, 0.04 μg/mL or 0.004 μg/mL) for 2 hr at RT. […] The mixture is incubated for 1 hr at RT. Development reagent (protease, 5 μL) is added for 1 hr prior to detection in a fluorescence microplate reader (Varioskan® Flash, ThermoFisher Scientific).
This method follows the same steps as Method 1 above, but utilises a higher concentration of the p38 MAPKα protein (2.5 μL of 200 ng/mL protein instead of 2.5 μL of 80 ng/mL protein) for mixing with the test compound.
(§2) In all cases, the site-specific protease cleaves non-phosphorylated peptide only and eliminates the FRET signal. Phosphorylation levels of each reaction are calculated using the ratio of coumarin emission (donor) over fluorescein emission (acceptor), for which high ratios indicate high phosphorylation and low ratios indicate low phosphorylation levels. The percentage inhibition of each reaction is calculated relative to non-inhibited control and the 50% inhibitory concentration (IC50 value) is then calculated from the concentration-response curve.

Assay [2] deals with PBMCs. Description: LPS-induced TNFα/IL-8 release in PBMC cells. Type of assay: cell-based. As to conditions: Homo sapiens, LPS-stimulated PBMCs. How it is done:
Peripheral blood mononuclear cells (PBMCs) from healthy subjects are separated from whole blood using a density gradient (Lymphoprep, Axis-Shield Healthcare). The PBMCs are seeded in 96 well plates and treated with compounds at the desired concentration for 2 hours before addition of 1 ng/mL LPS (Escherichia Coli 0111:B4 from Sigma Aldrich) for 24 hours under normal tissue culture conditions (37° C., 5% CO2). The supernatant is harvested for determination of IL-8 and TNFα concentrations by sandwich ELISA (Duo-set, R&D systems) and read on the fluorescence microplate reader (Varioskan® Flash, ThermoFisher Scientific). The concentration at 50% inhibition (IC50) of IL-8 and TNFα production is calculated from the dose response curve.

Assay [3] deals with HT29 cells. Description: IL-1β-induced IL-8 release in HT29 cells. Type of assay: cell-based. As to conditions: Homo sapiens, HT-29, IL-1β-stimulated HT29 cells, read-out: IC50 Values for Inhibition of Cytokine Release HT29 cells IL-8. The method, then: HT29 cells, a human colon adenocarcinoma cell line, are plated in a 96 well plate (24 hrs) and pre-treated with compounds at the desired concentration for 2 hours before addition of 5 ng/mL of IL-1β (Abcam) for 24 hours. Supernatants are harvested for IL-8 quantification by Sandwich ELISA (Duo-set, R&D System). The IC50 is determined from the dose response curve.

In assay [4] the test system is PBMCs. Description: IL-2 and IFN gamma release in CD3/CD28 stimulated PBMC cells. Type of assay: cell-based. The conditions noted are these: Homo sapiens, IL-2, read-out: IC50 Values for Inhibition of Cytokine Release PBMCs IL-2. How it is done:
PBMCs from healthy subjects are separated from whole blood using a density gradient (Lymphoprep, Axis-Shield Healthcare). Cells are added to a 96 well plate pre-coated with a mixture of CD3/CD38 monoclonal antibodies (0.3 μg/mL eBioscience and 3 μg/mL BD Pharmingen respectively). Compound at the desired concentration is then added to the wells and the plate left for 3 days under normal tissue culture conditions. Supernatants are harvested and IL-2 and IFN gamma release determined by Sandwich ELISA (Duo-set, R&D System). The IC50 is determined from the dose response curve.

The target of assay [5] is c-Src (Homo sapiens (Human), UniProt P12931). Description: c-Src enzyme inhibition (Z-LYTE FRET). It is filed as biochemical. How it is done: as §1
Chain of c-Src (P12931 whole entry, looked up): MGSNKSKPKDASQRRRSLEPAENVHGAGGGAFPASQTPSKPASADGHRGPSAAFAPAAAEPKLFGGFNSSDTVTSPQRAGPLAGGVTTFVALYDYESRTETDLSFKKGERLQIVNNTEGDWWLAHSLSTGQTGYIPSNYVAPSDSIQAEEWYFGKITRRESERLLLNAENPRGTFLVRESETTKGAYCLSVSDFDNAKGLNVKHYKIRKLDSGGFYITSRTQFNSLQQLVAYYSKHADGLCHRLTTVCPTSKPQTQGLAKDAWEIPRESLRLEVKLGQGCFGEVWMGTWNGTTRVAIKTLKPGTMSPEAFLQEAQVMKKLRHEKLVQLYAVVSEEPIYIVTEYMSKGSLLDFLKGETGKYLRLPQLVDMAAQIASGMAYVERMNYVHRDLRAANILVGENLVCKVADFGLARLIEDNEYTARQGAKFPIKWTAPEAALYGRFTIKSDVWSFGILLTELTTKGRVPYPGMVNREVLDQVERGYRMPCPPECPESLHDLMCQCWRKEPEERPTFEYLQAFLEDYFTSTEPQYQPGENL
(§3) The inhibitory activities of compounds of the invention against c-Src and Syk enzymes (Invitrogen), are evaluated in a similar fashion to that described hereinabove. The relevant enzyme (3000 ng/mL or 2000 ng/mL respectively, 2.5 μL) is incubated with the test compound (either 4 μg/mL, 0.4 μg/mL, 0.04 μg/mL, or 0.004 μg/mL, 2.5 μL each) for 2 hr at RT. The FRET peptides (8 μM, 2.5 μL), and appropriate ATP solutions (2.5 μL, 800 μM for c-Src, and 60 μM ATP for Syk) are then added to the enzymes/compound mixtures and incubated for 1 hr. Development reagent (protease, 5 μL) is added for 1 hr prior to detection in a fluorescence microplate reader (Varioskan® Flash, ThermoFisher Scientific).
as §2

Assay [6] concerns the target GSK 3α (Homo sapiens (Human), UniProt P49840). The assay can be described thus: GSK 3α enzyme inhibition (Z-LYTE FRET). The conditions noted are these: read-out: IC50 Values for Enzyme Inhibition GSK3α. Type of assay: biochemical. The method, then:
as §1
The following two assay variants can be used for determination of GSK 3α inhibition.
The inhibitory activities of compounds of the invention against the GSK 3α enzyme isoform (Invitrogen), are evaluated by determining the level of activation/phosphorylation of the target peptide. The GSK3-α protein (500 ng/mL, 2.5 μL) is mixed with the test compound (2.5 μL at either 4 μg/mL, 0.4 μg/mL, 0.04 μg/mL, or 0.004 μg/mL) for 2 hr at RT. The FRET peptide (8 μM, 2.5 μL), which is a phosphorylation target for GSK3α, and ATP (40 μM, 2.5 μL) are then added to the enzyme/compound mixture and the resulting mixture incubated for 1 hr. Development reagent (protease, 5 μL) is added for 1 hr prior to detection in a fluorescence microplate reader (Varioskan® Flash, ThermoFisher Scientific).
as §2
This method follows the same steps as Method 1 above, but utilises a shorter period of mixing of the test compound (105 minutes instead of 2 hours) with the GSK3-α protein.

In assay [7] the target is Syk (Homo sapiens (Human), UniProt P43405). Description: Syk enzyme inhibition (Z-LYTE FRET). It is filed as biochemical. The method, then:
as §1, §3, §2

For assay [8], the system named is d-U937 cells. Description: LPS-induced TNFα/IL-8 release in d-U937 cells. Type of assay: cell-based. The conditions noted are these: Homo sapiens, dU937, LPS-stimulated d-U937 cells. How it is done:
U937 cells, a human monocytic cell line, are differentiated to macrophage-type cells by incubation with phorbol myristate acetate (PMA; 100 ng/mL) for 48 to 72 hr. Cells are pre-incubated with final concentrations of test compound for 2 hr and are then stimulated with 0.1 μg/mL of LPS (from E. Coli: O111:B4, Sigma) for 4 hr. The supernatant is collected for determination of TNFα and IL-8 concentrations by sandwich ELISA (Duo-set, R&D systems). The inhibition of TNFα production is calculated as a percentage of that achieved by 10 μg/mL of BIRB796 at each concentration of test compound by comparison against vehicle control. The relative 50% effective concentration (REC50) is determined from the resultant concentration-response curve. The inhibition of IL-8 production is calculated at each concentration of test compound by comparison with vehicle control. The 50% inhibitory concentration (IC50) is determined from the resultant concentration-response curve.

Where [9] appears, read: IL-8, read-out: IC50 Values for Inhibition of Cytokine Release PBMCs IL-8.
[10] abbreviates: TNFα, read-out: IC50 Values for Inhibition of Cytokine Release PBMCs TNFα.
Where [11] appears, read: IL-8, read-out: IC50 Values for Inhibition of Cytokine Release dU937 cells IL-8.
[12] abbreviates: TNFα, method describes REC50 relative to BIRB796, read-out: IC50 Values for Inhibition of Cytokine Release dU937 cells TNFα.

SMILES strings stand for the structures. pIC50: −log10 of the molar value. Read-outs that look alike come from different tables or passages of the source. Bounds are passed on as bounds.

Chain of p38 MAPKα isoform (MAPK14) (Q16539 whole entry, canonical isoform): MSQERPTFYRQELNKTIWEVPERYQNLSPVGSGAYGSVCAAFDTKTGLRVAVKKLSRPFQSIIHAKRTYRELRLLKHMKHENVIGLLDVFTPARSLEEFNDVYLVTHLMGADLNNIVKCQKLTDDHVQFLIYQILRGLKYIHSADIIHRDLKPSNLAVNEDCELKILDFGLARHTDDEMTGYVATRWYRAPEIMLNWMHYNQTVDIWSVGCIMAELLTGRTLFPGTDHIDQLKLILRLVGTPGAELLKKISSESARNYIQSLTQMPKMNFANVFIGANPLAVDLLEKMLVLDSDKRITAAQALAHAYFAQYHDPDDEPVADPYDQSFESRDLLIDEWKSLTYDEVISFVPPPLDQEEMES
Chain of GSK 3α (P49840 whole entry): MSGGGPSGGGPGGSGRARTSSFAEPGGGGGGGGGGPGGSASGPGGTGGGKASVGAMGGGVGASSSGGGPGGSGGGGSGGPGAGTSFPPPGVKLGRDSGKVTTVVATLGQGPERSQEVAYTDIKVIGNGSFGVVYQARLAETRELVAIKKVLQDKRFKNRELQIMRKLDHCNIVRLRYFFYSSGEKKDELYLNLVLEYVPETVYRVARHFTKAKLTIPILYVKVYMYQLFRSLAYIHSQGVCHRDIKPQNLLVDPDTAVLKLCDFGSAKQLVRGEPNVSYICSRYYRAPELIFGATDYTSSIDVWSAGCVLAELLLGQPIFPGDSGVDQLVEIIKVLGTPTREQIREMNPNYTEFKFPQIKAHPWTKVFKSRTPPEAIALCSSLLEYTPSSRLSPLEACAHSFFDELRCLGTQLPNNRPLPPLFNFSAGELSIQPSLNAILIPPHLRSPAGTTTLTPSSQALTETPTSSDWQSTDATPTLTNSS

With `Cc1ccc(-n2nc([Si](C)(C)C)cc2NC(=O)Nc2ccc(Oc3ccnc(Nc4ccccc4)n3)c3ccccc23)cc1` [Example 1, 1-(4-((2-(Phenylamino)pyrimidin-4-yl)oxy)naphthalen-1-yl)-3-(1-(p-tolyl)-3-(trimethylsilyl)-1H-pyrazol-5-yl)urea], the negative logarithm of the IC50 (pIC50) (as a rule, the negative decadic logarithm of the IC50, by convention in mol/L) in assay [1] was 6.82; in assay [2] (setting [9]), 7.85; in assay [2] (setting [10]) it was 8.55; in assay [3], 7.81; in assay [4], 6.56; in assay [5] it was 7.11. In addition, the pIC50 is < 5.00 in assay [6], < 6.00 in assay [7], 8.34 in assay [8] (setting [11]) and 8.60 in assay [8] (setting [12]).
As to `COc1ccc(-n2nc([Si](C)(C)C)cc2NC(=O)Nc2ccc(Oc3ccnc(Nc4ccccc4)n3)c3ccccc23)cn1` [Example 2, 1-(1-(6-Methoxypyridin-3-yl)-3-(trimethylsilyl)-1H-pyrazol-5-yl)-3-(4-((2-(phenylamino)pyrimidin-4-yl)oxy)naphthalen-1-yl)urea], the pIC50 in assay [1] is 6.48; in assay [2] (setting [9]), 8.08; in assay [2] (setting [10]), 8.57; in assay [3] it was 7.92; in assay [4], 6.89; in assay [5] it was 7.03. Besides, the pIC50 in assay [6] is 5.49; in assay [7], < 6.00; in assay [8] (setting [11]), 8.59; in assay [8] (setting [12]), 8.74.
Turning to `C[Si](C)(C)c1cc(NC(=O)Nc2ccc(Oc3ccnc(Nc4ccccc4)n3)c3ccccc23)n(-c2ccc(OCCN3CCOCC3)cc2)n1` [Example 3, 1-(1-(4-(2-Morpholinoethoxy)phenyl)-3-(trimethylsilyl)-1H-pyrazol-5-yl)-3-(4-((2-(phenylamino)pyrimidin-4-yl)oxy)naphthalen-1-yl)urea], the negative logarithm of the IC50 (pIC50) was 6.46 in assay [1]; 8.03 in assay [2] (setting [9]); 7.87 in assay [3]; 7.11 in assay [4]; 6.64 in assay [5]; 5.30 in assay [6]. In addition, the pIC50 in assay [7] was < 6.00; in assay [8] (setting [11]), 7.74; in assay [8] (setting [12]) it was 8.70.
Turning to `Cc1ccc(-n2nc([Si](C)(C)C)cc2NC(=O)Nc2ccc(Oc3ccnc(Nc4cccc(OCCN5CCOCC5)c4)n3)c3ccccc23)cc1` [Example 6, 1-(4-((2-((3-(2-Morpholinoethoxy)phenyl)amino)pyrimidin-4-yl)oxy)naphthalen-1-yl)-3-(1-(p-tolyl)-3-(trimethylsilyl)-1H-pyrazol-5-yl)urea], the pIC50 in assay [1] is 6.50; in assay [2] (setting [9]) it was 8.32; in assay [2] (setting [10]) it was 9.15; in assay [3], 8.06; in assay [4] it was 7.80; in assay [5], 8.00. Besides, the negative logarithm of the IC50 (pIC50) in assay [6] was < 5.70; in assay [7], 8.15; in assay [8] (setting [11]), 8.74; in assay [8] (setting [12]), 8.82.
Turning to `Cc1ccc(-n2nc([Si](C)(C)C)cc2NC(=O)Nc2ccc(Oc3ccnc(Nc4ccc5[nH]ncc5c4)n3)c3ccccc23)cc1` [Example 7, 1-[4-[2-(1H-Indazol-5-ylamino)pyrimidin-4-yl]oxy-1-naphthyl]-3-[2-(p-tolyl)-5-trimethylsilyl-pyrazol-3-yl]urea], the pIC50 is 6.42 in assay [1]; 7.92 in assay [2] (setting [9]); 8.48 in assay [2] (setting [10]); 7.78 in assay [3]; 7.32 in assay [4]; 7.35 in assay [5]. Besides, the pIC50 is < 5.00 in assay [6], 6.17 in assay [7], 8.07 in assay [8] (setting [11]) and 8.72 in assay [8] (setting [12]).
For the compound `Cc1ccc(-n2nc([Si](C)(C)C)cc2NC(=O)Nc2ccc(Oc3ccnc(Nc4cc(C)c5[nH]ncc5c4)n3)c3ccccc23)cc1` [Example 9, 1-(4-((2-((7-Methyl-1H-indazol-5-yl)amino)pyrimidin-4-yl)oxy)naphthalen-1-yl)-3-(1-(p-tolyl)-3-(trimethylsilyl)-1H-pyrazol-5-yl)urea], the pIC50 is 6.45 in assay [1]; 8.47 in assay [2] (setting [9]); 8.32 in assay [3]; 7.39 in assay [4]; 6.87 in assay [5]; < 5.00 in assay [6]. Also, the values for the pIC50 in assay [7], in assay [8] (setting [11]) and in assay [8] (setting [12]) were 6.28, 8.59 and 8.92, respectively.
For the compound `Cc1ccc(-n2nc([Si](C)(C)C)cc2NC(=O)Nc2ccc(Oc3ccnc(Nc4ccc5c(c4)NC(=O)C5)n3)c3ccccc23)cc1` [Example 10, 1-(4-((2-((2-Oxoindolin-6-yl)amino)pyrimidin-4-yl)oxy)naphthalen-1-yl)-3-(1-(p-tolyl)-3-(trimethylsilyl)-1H-pyrazol-5-yl)urea], the pIC50 in assay [1] was 6.27; in assay [2] (setting [9]), 8.46; in assay [3], 8.30; in assay [4], 6.71; in assay [5], 7.72; in assay [6] it was < 5.00. In addition, the values for the pIC50 in assay [7], in assay [8] (setting [11]) and in assay [8] (setting [12]) were 6.00, 8.70 and 8.80, respectively.

These data come from patent publication US9783556B2, “Kinase inhibitors” (RESPIVERT LIMITED, priority 2012, dated 2017).
